Source: ChEMBL document CHEMBL3407427, “Discovery of efficacious Pseudomonas aeruginosa-targeted siderophore-conjugated monocarbams by application of a semi-mechanistic pharmacokinetic/pharmacodynamic model” (J Med Chem, 2015)
Converted amounts (≈) assume the structure as drawn.

Experiments:
[1] = test system: Pseudomonas aeruginosa; test: Antimicrobial activity against MexABCDXY-deficient Pseudomonas aeruginosa PAO1 ARC546 by broth microdilution method; assay type: functional
[2] = test system: Pseudomonas aeruginosa; test: Inhibition of Pseudomonas aeruginosa PBP3 acylation activity by BOCILLIN FL-based assay
[3] = Percentage unbound in human plasma at 10 uM after 16 hrs by LC-MS/MS analysis
[4] = Half life in PBS buffer in pH 7.4 by UPLC analysis; assay type: ADME
[5] = test system: Pseudomonas aeruginosa; test: Antimicrobial activity against Pseudomonas aeruginosa PAO1 ARC545 by broth microdilution method; assay type: functional
[6] = test system: Escherichia coli; test: Antimicrobial activity against Escherichia coli by broth microdilution method; assay type: functional
[7] = Plasma protein binding in Wistar Han rat as percentage unbound
[8] = Half life in Wistar Han rat at 1 mg/kg, iv infusion; assay type: ADME, organism-based; parameters: dose 1 mg/kg, route intravenous; details: in vivo
[9] = test system: Acinetobacter baumannii; test: Antimicrobial activity against Acinetobacter baumannii by broth microdilution method; assay type: functional
[10] = Clearance in Wistar Han rat at 1 mg/kg, iv infusion; assay type: ADME, organism-based; parameters: dose 1 mg/kg, route intravenous; details: in vivo
[11] = test system: Pseudomonas aeruginosa; test: Antimicrobial activity against Pseudomonas aeruginosa by broth microdilution method; assay type: functional
[12] = test system: Klebsiella pneumoniae; test: Antimicrobial activity against Klebsiella pneumoniae by broth microdilution method; assay type: functional
[13] = Volume of distribution at steady state in Wistar Han rat at 1 mg/kg, iv infusion; assay type: ADME, organism-based; parameters: dose 1 mg/kg, route intravenous; details: in vivo, read-out: Vdss

| Compound | MIC [1] | Kinact [2] | fraction unbound at 16 h, 10 µM [3] | half-life [4] | MIC [5] | MIC90 [6] | fraction unbound [7] | half-life [8] | MIC90 [9] | clearance [10] | MIC90 [11] | MIC90 [12] | Vd [13] |
| --- | --- | --- | --- | --- | --- | --- | --- | --- | --- | --- | --- | --- | --- |
| C[C@H]1[C@H](NC(=O)/C(=N\OCC(=O)O)c2csc(N)n2)C(=O)N1C(=O)NS(=O)(=O)N1C[C@@H](NC(=O)NCc2cc(=O)c(O)cn2O)CC1=O | 0.13 µg/mL (≈ 0.182 µM) | 3.4 ×10³ /M/s | 0.26 | 87 h | 4 µg/mL (≈ 5.6 µM) | – | – | – | – | – | – | – | – |
| C[C@H]1[C@H](NC(=O)/C(=N\OC(C)(C)C(=O)O)c2csc(N)n2)C(=O)N1C(=O)NS(=O)(=O)N1C[C@@H](NC(=O)[C@H](CN)NC(=O)c2cc(=O)c(O)c[nH]2)CC1=O | 0.5 µg/mL (≈ 0.638 µM) | 9.4 ×10³ /M/s | 0.18 | 51 h | 4 µg/mL (≈ 5.1 µM) | – | – | – | – | – | – | – | – |
| C[C@H]1[C@H](NC(=O)/C(=N\OC(C)(C)C(=O)O)c2csc(N)n2)C(=O)N1C(=O)NS(=O)(=O)N1C[C@@H](NC(=O)NCc2cc(=O)c(O)c[nH]2)CC1=O | 1 µg/mL (≈ 1.38 µM) | 2.4 ×10⁴ /M/s | 0.26 | 30 h | 16 µg/mL (≈ 22 µM) | – | – | – | – | – | – | – | – |
| C[C@H]1[C@H](NC(=O)/C(=N\OC(C)(C)C(=O)O)c2csc(N)n2)C(=O)N1C(=O)NS(=O)(=O)N1N=C(c2cc(=O)c(O)c[nH]2)NCC1=O | 2 µg/mL (≈ 2.99 µM) | 3.8 ×10³ /M/s | – | 40 h | 16 µg/mL (≈ 23.9 µM) | – | – | – | – | – | – | – | – |
| C[C@H]1[C@H](NC(=O)/C(=N\OC(C)(C)C(=O)O)c2csc(N)n2)C(=O)N1C(=O)NS(=O)(=O)N1CCN(C(=O)c2cc(=O)c(O)c[nH]2)N(C)C1=O | < 0.06 µg/mL | 2.6 ×10⁴ /M/s | 0.14 | 38 h | 1 µg/mL (≈ 1.4 µM) | 64 µg/mL (≈ 89.8 µM) | 0.15 | 0.37 h | > 128 µg/mL | 12 mL/min/kg | 2 µg/mL (≈ 2.81 µM) | 64 µg/mL (≈ 89.8 µM) | 0.42 L/kg |
| C[C@H]1[C@H](NC(=O)/C(=N\OC(C)(C)C(=O)O)c2csc(N)n2)C(=O)N1C(=O)NS(=O)(=O)N1C[C@@H](N(C)C(=O)NCc2cc(=O)c(O)cn2O)CC1=O | 0.25 µg/mL (≈ 0.33 µM) | 3.1 ×10⁴ /M/s | 0.27 | 19 h | 0.5 µg/mL (≈ 0.661 µM) | – | – | – | – | – | – | – | – |
| C[C@H]1[C@H](NC(=O)/C(=N\OC(C)(C)C(=O)O)c2csc(N)n2)C(=O)N1C(=O)NS(=O)(=O)N1C[C@H](NC(=O)c2cc(=O)c(O)c[nH]2)CC1=O | < 0.06 µg/mL | 3.5 ×10⁵ /M/s | 0.25 | > 150 h | 0.5 µg/mL (≈ 0.717 µM) | – | – | – | – | – | – | – | – |
| CC(C)(O/N=C(\C(=O)NC1CN(C(=O)NS(=O)(=O)N2CCN(NC(=O)c3cc(=O)c(O)c[nH]3)C2=O)C1=O)c1csc(N)n1)C(=O)O (stereo not drawn) [PIRAZMONAM] | 0.06 µg/mL (≈ 0.0876 µM) | 1.4 ×10⁵ /M/s | 0.29 | 41 h | 0.25 µg/mL (≈ 0.365 µM) | – | – | – | – | – | – | – | – |
| C[C@H]1[C@H](NC(=O)/C(=N\OC(C)(C)C(=O)O)c2csc(N)n2)C(=O)N1C(=O)NS(=O)(=O)N1CC[C@H](NC(=O)c2cc(=O)c(O)c[nH]2)C1 | < 0.06 µg/mL | 4.6 ×10⁴ /M/s | 0.33 | > 150 h | 1 µg/mL (≈ 1.46 µM) | – | – | – | – | – | – | – | – |
| C[C@H]1[C@H](NC(=O)/C(=N\OC(C)(C)C(=O)O)c2csc(N)n2)C(=O)N1C(=O)NS(=O)(=O)N1C[C@@H](NC(=O)[C@H](CC(=O)O)NC(=O)c2cc(=O)c(O)cn2O)CC1=O | < 0.06 µg/mL | 2 ×10⁵ /M/s | 0.43 | > 150 h | 0.25 µg/mL (≈ 0.302 µM) | – | – | – | – | – | – | – | – |
| C[C@H]1[C@H](NC(=O)/C(=N\OC(C)(C)C(=O)O)c2csc(N)n2)C(=O)N1C(=O)NS(=O)(=O)Nc1cc(=O)c(O)c[nH]1 | 1 µg/mL (≈ 1.7 µM) | 1.3 ×10⁴ /M/s | 0.23 | 103 h | 16 µg/mL (≈ 27.3 µM) | – | – | – | – | – | – | – | – |
| CC(C)(O/N=C(\C(=O)N[C@@H]1C(=O)N(C(=O)NS(=O)(=O)N2C[C@@H](NC(=O)NCc3cc(=O)c(O)cn3O)CC2=O)C1(C)C)c1csc(N)n1)C(=O)O | 1 µg/mL (≈ 1.32 µM) | 8.1 ×10² /M/s | 0.23 | > 150 h | 8 µg/mL (≈ 10.6 µM) | – | – | – | – | – | – | – | – |
| C[C@H]1[C@H](NC(=O)/C(=N\OC(C)(C)C(=O)O)c2csc(N)n2)C(=O)N1C(=O)NS(=O)(=O)N1CCN(C(=O)c2cc(=O)c(O)c[nH]2)CC1 | < 0.06 µg/mL | 2.4 ×10⁴ /M/s | 0.26 | > 150 h | 8 µg/mL (≈ 11.7 µM) | – | – | – | – | – | – | – | – |
| C[C@H]1[C@H](NC(=O)/C(=N\OC(C)(C)C(=O)O)c2csc(N)n2)C(=O)N1C(=O)NS(=O)(=O)N1C[C@@H](NC(=O)[C@@H]2CCCN2C(=O)c2cc(=O)c(O)c[nH]2)CC1=O | 0.5 µg/mL (≈ 0.629 µM) | 1.4 ×10⁴ /M/s | 0.28 | 114 h | 8 µg/mL (≈ 10.1 µM) | – | – | – | – | – | – | – | – |
| C[C@H]1[C@H](NC(=O)/C(=N\OC(C)(C)C(=O)O)c2csc(N)n2)C(=O)N1C(=O)NS(=O)(=O)N1C[C@@H](n2cc(-c3cc(=O)c(O)c[nH]3)nn2)CC1=O | < 0.06 µg/mL | 2.3 ×10⁵ /M/s | 0.31 | 117 h | 4 µg/mL (≈ 5.54 µM) | – | – | – | – | – | – | – | – |
| C[C@H]1[C@H](NC(=O)/C(=N\OC(C)(C)C(=O)O)c2csc(N)n2)C(=O)N1C(=O)NS(=O)(=O)NCc1cc(=O)c(O)c[nH]1 | < 0.06 µg/mL | 2.5 ×10⁴ /M/s | 0.61 | > 150 h | 8 µg/mL (≈ 13.3 µM) | – | – | – | – | – | – | – | – |
| C[C@H]1[C@H](NC(=O)/C(=N\OC(C)(C)C(=O)O)c2csc(N)n2)C(=O)N1C(=O)NS(=O)(=O)N1C[C@@H](NC(=O)CNC(=O)c2cc(=O)c(O)c[nH]2)CC1=O | 0.25 µg/mL (≈ 0.331 µM) | 2.4 ×10⁴ /M/s | 0.38 | > 150 h | 2 µg/mL (≈ 2.65 µM) | – | – | – | – | – | – | – | – |
| C[C@H]1[C@H](NC(=O)/C(=N\OC(C)(C)C(=O)O)c2csc(N)n2)C(=O)N1C(=O)NS(=O)(=O)N1C[C@@H](NC(=O)CNC(=O)c2cc(=O)c(O)cn2O)CC1=O | < 0.06 µg/mL | 1 ×10⁵ /M/s | 0.45 | > 150 h | 0.5 µg/mL (≈ 0.649 µM) | – | – | – | – | – | – | – | – |
| C[C@H]1[C@H](NC(=O)/C(=N\OC(C)(C)C(=O)O)c2csc(N)n2)C(=O)N1C(=O)NS(=O)(=O)N1C[C@@H](NCc2cc(=O)c(O)c[nH]2)CC1=O | 0.5 µg/mL (≈ 0.731 µM) | 5.7 ×10⁴ /M/s | 0.4 | 48 h | 8 µg/mL (≈ 11.7 µM) | – | – | – | – | – | – | – | – |
| C[C@H]1[C@H](NC(=O)/C(=N\OC(C)(C)C(=O)O)c2csc(N)n2)C(=O)N1C(=O)NS(=O)(=O)N1C[C@@H](NC(=O)c2cc(=O)c(O)cn2O)CC1=O | < 0.06 µg/mL | 3 ×10⁵ /M/s | 0.08 | > 150 h | 0.5 µg/mL (≈ 0.701 µM) | – | – | – | – | – | – | – | – |
| C[C@H]1[C@H](NC(=O)/C(=N\OC(C)(C)C(=O)O)c2csc(N)n2)C(=O)N1C(=O)NS(=O)(=O)N1C[C@@H](NC(=O)N(C)Cc2cc(=O)c(O)cn2O)CC1=O | 0.25 µg/mL (≈ 0.33 µM) | 1.9 ×10⁴ /M/s | 0.26 | > 150 h | 1 µg/mL (≈ 1.32 µM) | – | – | – | – | – | – | – | – |
| C[C@H]1[C@H](NC(=O)/C(=N\OC(C)(C)C(=O)O)c2csc(N)n2)C(=O)N1C(=O)NS(=O)(=O)N1C[C@@H](NC(=O)[C@H](CC(=O)O)NC(=O)c2cc(=O)c(O)c[nH]2)CC1=O | 0.5 µg/mL (≈ 0.615 µM) | 3.8 ×10⁴ /M/s | 0.14 | > 150 h | 1 µg/mL (≈ 1.23 µM) | – | – | – | – | – | – | – | – |
| C[C@H]1[C@H](NC(=O)/C(=N\OC(C)(C)C(=O)O)c2csc(N)n2)C(=O)N1S(=O)(=O)O [AZTREONAM] | 0.25 µg/mL (≈ 0.574 µM) | – | – | – | 4 µg/mL (≈ 9.19 µM) | > 512 µg/mL | – | – | > 512 µg/mL | – | 1020 µg/mL (≈ 2350 µM) | > 512 µg/mL | – |
| C[C@H]1[C@H](NC(=O)/C(=N\OC(C)(C)C(=O)O)c2csc(N)n2)C(=O)N1C(=O)NS(=O)(=O)N1C[C@@H](NC(=O)[C@H](CCS(C)(=O)=O)NC(=O)c2cc(=O)c(O)c[nH]2)CC1=O | 0.25 µg/mL (≈ 0.29 µM) | 1.8 ×10⁴ /M/s | 0.21 | > 150 h | 4 µg/mL (≈ 4.65 µM) | – | – | – | – | – | – | – | – |
